This is an account of results in patent US20180009764A1, “METHOD FOR TREATING MACROPHAGE MIGRATION INHIBITORY FACTOR (MIF)-IMPLICATED DISEASES AND CONDITIONS WITH IODO PYRIMIDINE DERIVATIVES” (UNIVERSITY OF LOUISVILLE RESEARCH FOUNDATION, INC., priority 2009, published 2018).

The target of the assay is T1, MIF (Mus musculus, UniProt P34884).
T1 construct: from tissue; host or cells: mouse liver (A7); liver, lung and brain of C57BL6 mice (A20)
Kind of assay: MIF liver lysates enzymatic activity ex vivo (L-dopachrome tautomerase). The settings on record: mice; IP 1 mg in corn oil every day for 3 days; livers 6 hours after last injection; FIG. 1. On the procedure: This experiment, using an ex-vivo approach and the tautomeric reaction of L-dopachrom, was designed to ascertain the level of inhibition of MIF following administration of the compounds of this invention via oral, IV, IP or any other route of administration. Mice were used in the example illustrated below, but other animals could be used as well. Groups of 3 mice were administered IP 1 mg of 4-IPP and ACT-002 resuspended in 100 μl of corn oil every day for 3 days. Mice were sacrificed 6 hours after the last injection and livers were harvested. ˜1 gram pieces of liver were lysed in PBS containing 1 mM NaVO4, 2 mM NaF and a protease inhibitor cocktail (Roche Biochemical, Indianapolis, Ind.) using dounce-homogenization on ice. 500 μg of liver lysates were added to a final volume of 700 μl PBS in plastic cuvettes. 4 mM L-3, 4-dihydroxyphenylalanine methyl ester and 8 mM sodium periodate (Sigma-Aldrich) were combined in a 3:2 ratio to form L-dopachrome methyl ester. 300 μL of L-dopachrome methyl ester was then immediately added to the cuvettes; the OD475 nm was measured 2 min and 4 min after addition of the L-dopachrome.

For the molecule `COc1ccc(-c2cc(I)ncn2)c(F)c1` [ACT-MIF-002, 4-Iodo-6-(2-fluoro-4-methoxyphenyl)pyrimidine], the “MIF liver enzyme inhibition” value is given as “significant in vivo inhibition of MIF”.
